The values that follow come from PMC5814268, “Antitumor activity of HPA3P through RIPK3-dependent regulated necrotic cell death in colon cancer” (Oncotarget, 2018).

Assay type in all cases: cell-based, human
The test system of data set [1] is colon cancer cell lines. The experiment in a line: MTT assay, cell viability in colon cancer cell lines. Conditions: comparison of HPA3P with anticancer drugs. On the procedure: (§1) The cells were plated in 96-well plates at a density of 2 × 10^4 cells per well. After incubating overnight, the cells were treated with HPA3, HPA3P, HPA3P2, oxaliplatin, and 5-FU at various concentrations. After the cells had incubated for 6 h or 24 h, the culture medium was replaced with fresh medium. Twenty microlitres of a 5 mg/ml stock solution of 3-(4,5-dimetylthiazol-2-yl)-2,5-diphenyltetrazolium bromide (Sigma Aldrich) was added to each well, and the cells were incubated for 1 h at 37°C in a humidified atmosphere of 5% CO2. After removal of the supernatant, 100 μl of DMSO was added to each well. The plates were subsequently incubated on a horizontal shaker for 20 min at room temperature, and the optical density was measured at an absorbance of 570 nm using a microplate reader (SPECTRA MAX PLUS, Molecular Devices, CA, USA).
For orientation: Formazan colour is commonly taken as a measure of viable cells.

Data set [2] concerns HCT116 p53+/+ cells. The experiment in a line: MTT assay, HCT116 p53+/+. Conditions: for restoration of cell viability in HPA3P-treated cells: pretreated with 30 μM Nec-1s or 3 μM GSK΄872 for 2 h, then HPA3P, Figure 5B-5C. On the procedure:
The cell lysates were analysed for RIPK1 and RIPK3 expression by western blotting. […] The cells were subsequently treated with HPA3P. HPA3P-induced cytotoxicity was measured by MTT assay. […] The cell lysates were analysed by western blot analysis. […] The cells were stained with PI for flow cytometric analysis. (F) The cells were treated with 30 μM HPA3P for the indicated times. RIPK3 expression was analysed by western blotting. […] Cell viability was measured by MTT assay. ^*p < 0.05, ^**p < 0.01 indicate a significant difference between the indicated groups. NS, not significant. (H) The colon cancer cell lysates used in this study were analysed by western blotting. (I) Schematic diagram of HPA3P-induced necroptosis.
as §1

Data set [3] concerns HCT116 p53+/+ cells. Nature of the data set: PI staining analysed by flow cytometry, HCT116 p53+/+. Conditions: 3 μM GSK΄872 for 2 h and/or 30 μM HPA3P for 6 h, Figure 5E. The method, then: Figure 3 HPA3P-induced necrosis and morphological changes in human colon cancer cell lines All cell lines were treated with HPA3P for 30 min and then stained with Hoechst 33342/PI or PI alone. (A) Pictures of Hoechst 33342/PI-stained cells were taken using an Olympus IX71 fluorescence microscope (magnification LCAch N 20X). (B) PI-stained cells were analysed by flow cytometry. (C) Morphological changes in colon cancer cells treated with HPA3P for 5 min were observed using an Olympus IX71 light microscope (magnification LUCPlaFL N 40X). The black arrows indicate membrane blebs. […] Morphological changes were observed under an Olympus IX71 fluorescence microscope (magnification LUCPlaFL N 40X). […]
Figure 5 Low concentrations of HPA3P induce RIPK3-dependent necroptosis in HCT116 p53^+/+ cells (A) HCT116 p53^+/+ cells were treated with HPA3P for 6 h. The cell lysates were analysed for RIPK1 and RIPK3 expression by western blotting. […] HPA3P-induced cytotoxicity was measured by MTT assay. […] The cell lysates were analysed by western blot analysis. […] RIPK3 expression was analysed by western blotting. […] Cell viability was measured by MTT assay. ^*p < 0.05, ^**p < 0.01 indicate a significant difference between the indicated groups. […] (H) The colon cancer cell lysates used in this study were analysed by western blotting. […]
A general note: Flow cytometry measures light scatter and fluorescence of single cells or particles in a stream.

In data set [4] the test system is RIPK3. The experiment in a line: RIPK3 expression, western blot in HCT116 p53+/+ cells. Conditions: 3 μM GSK΄872 pretreatment, Figure 5C. The method, then:
Figure 5 Low concentrations of HPA3P induce RIPK3-dependent necroptosis in HCT116 p53^+/+ cells (A) HCT116 p53^+/+ cells were treated with HPA3P for 6 h. The cell lysates were analysed for RIPK1 and RIPK3 expression by western blotting. The cells were pretreated with 30 μM Nec-1s (B) or 3 μM GSK΄872 (C) for 2 h and (D) transfected with negative-control (scramble), RIPK1, RIPK3, and MLKL siRNA for 24 h. The cells were subsequently treated with HPA3P. HPA3P-induced cytotoxicity was measured by MTT assay. (B–D) The cells were treated with Nec-1s or GSK΄872, and transfected with siRNA for 24 h. The cell lysates were analysed by western blot analysis. (E) The cells were treated with 3 μM GSK΄872 for 2 h and subsequently treated with 30 μM HPA3P for 6 h. The cells were stained with PI for flow cytometric analysis. […] RIPK3 expression was analysed by western blotting. […] Cell viability was measured by MTT assay. ^*p < 0.05, ^**p < 0.01 indicate a significant difference between the indicated groups. […] (H) The colon cancer cell lysates used in this study were analysed by western blotting. […]
The cells were plated in 6-well plates at a density of 1 × 10^6 cells per well. […] After incubating for 6 h or 24 h, the cells were scraped, and the proteins were quantified by the Bradford method. […] The reaction was detected using a Clarity™ Western ECL Substrate (BioRad, CA, USA). […]
A general note: In western blotting, separated proteins are transferred to a membrane and probed.

Data set [5] relates to LoVo cells. The experiment in a line: MTT assay, LoVo. Conditions: 24 h, Figure 4E. On the procedure:
as §1

For data set [6], the system named is SW480 cells. Nature of the data set: MTT assay, SW480. Conditions: SW480, 24 h, Figure 4E. The method, then: as §1
Data set [7] concerns HT-29 cells. The experiment in a line: MTT assay, HT-29. Conditions: HT-29, 24 h, Figure 4E. The method, then:
as §1

Data set [8] concerns cleaved-caspase 3 and cleaved-PARP. Nature of the data set: Western blot for apoptosis markers in colon cancer cell lines. The following applies: whole-cell lysates, 24 h, staurosporine as positive control, Figure 1C. The method, then: The cells were plated in 6-well plates at a density of 1 × 10^6 cells per well. After incubating overnight, the cells were treated with HPA3P at the indicated concentration. After incubating for 6 h or 24 h, the cells were scraped, and the proteins were quantified by the Bradford method. The proteins were resolved on SDS-PAGE and transferred to PVDF membranes (Millipore, Bedford, USA). The blots were blocked with TBST containing 5% skim milk for 1 h, after which the membranes were incubated overnight at 4°C with primary antibodies against cleaved caspase-3 (#9664), PARP (#9542, Cell Signaling Technology, MA, USA), HMGB1 (ab18256, Abcam, Cambridge, UK), and GAPDH (SC-25778, Santa Cruz, CA, USA). The blots were then washed with TBST buffer and incubated with a secondary horseradish peroxidase-conjugated antibody (Santa Cruz, CA, USA). The reaction was detected using a Clarity™ Western ECL Substrate (BioRad, CA, USA).

For the compound `O=c1[nH]cc(F)c(=O)[nH]1` [5-FU], the cell viability result in data set [1] (6 h, Figure 4D) is recorded as “no effect on cell viability”; in data set [1] (24 h, Figure 4E), “no effect on cell viability”.

For `CC(C)S(=O)(=O)c1ccc2nccc(Nc3ccc4scnc4c3)c2c1` [GSK΄872], in data set [2] (pretreated with 3 μM GSK΄872 for 2 h, then HPA3P for 24 h, Figure 5G), the “protective effect on HPA3P-mediated cytotoxicity” value was “inhibited HPA3P-induced cytotoxicity”. Also, the “restoration of cell viability in HPA3P-treated cells” value in data set [2] is “restored cell viability”. In addition, in data set [3], the “PI staining, gate P1” value came out at 91.47% and the “PI staining, gate P2” value was determined as 7.34%. For the same compound, the “effect on HPA3P-induced increases in RIPK3 expression” value in data set [4] was “inhibited”.

Regarding `CN1C(=O)NC(Cc2c[nH]c3c(Cl)cccc23)C1=O` (centres unmarked) [Nec-1s], the “restoration of cell viability in HPA3P-treated cells” value in data set [2] is “did not restore cell viability”.

Turning to `O=C1[O][Pt]2([NH][C@@H]3CCCC[C@H]3[NH]2)[O]C1=O` [oxaliplatin, Oxaliplatin], the cell viability entry is “significant decrease in cell viability” in data set [2] (24 h, Figure 4E); “significant decrease in cell viability” in data set [5]; “no effect on cell viability” in data set [1] (6 h, Figure 4D); “significant decrease in cell viability” in data set [6]; “reduced cell viability only slightly” in data set [7].

As to `CN[C@@H]1C[C@H]2O[C@@](C)([C@@H]1OC)n1c3ccccc3c3c4c(c5c6ccccc6n2c5c31)C(=O)NC4` [staurosporine], in data set [8], the “cleaved-caspase 3 and cleaved-PARP” value is on record as “detected”.
